Measured values published in patent US6673940B1, “Compositions and methods relating to cyclic compounds that undergo nucleotide base pair-specific interactions with double-stranded nucleic acids” (California Institute of Technology, priority 1999, dated 2004).

Experiments:
[1] = tested on: 5′-TGTTA-3′ dsDNA target sequence; details: Cho et al. 1995; cited from earlier work
[2] = tested on: 5′-AGTACT-3′ site on 229 bp restriction fragment of pJT8; assay: Quantitative DNase I footprint titration, 5′-AGTACT-3′ site; type: binding; details: for equilibrium association constant Ka at 5′-AGTACT-3′: 10 mM Tris•HCl, 10 mM KCl, 10 mM MgCl2, 5 mM CaCl2, pH 7.0, 22° C., match site for (3), single base pair mis-match for (4)
Procedure: (§1) FIGS. 8A and 8B depict the results quantitative DNase I footprint titration experiments with (a) cyclo-(Γ-Im-Py-Py-Py-(R)^H^2^Nγ-Im-Py-Py-Py) (3) and (b) cyclo-(γ-Im-Py-Py-Py(R)^H^2^Nγ-Py-Py-Py-Py) (4) on the 3′-end labeled 229-bp restriction fragment of pJT8. Lane 1, intact DNA control; lane 2, A reaction; lane 3, DNase I standard, lanes 4-13, 5 pM, 10 pM, 20 pM, 50 pM, 100 pM, 1 nM, 2 nM, 5 nM, and 10 nM of the respective polyamide. The 5′-AGTACT-3′ and 5′-AGTATT-3′ match and mis-match sites for each polyamide were analyzed and are shown on the right side of the respective autoradiograms. All reactions contained 20 kcpm of radiolabeled restriction fragment, 10 mM Tris•HCI (pH 7.0), 10 mM KC1, 10 mM MgCl2, and 5 mM CaCl2.
(§2) As controls, the binding affinities and sequence specificities of the Im-Py-Py-Py-β-Dp (1) unlinked 2:1 dimer and a hairpin analog 1m-Py-Py-Py-(R)^H,Nγ-Im-Py-Py-Py-C3-OH (2) were also studied. An EDTA analogue, cyclo-(γ-Im-Py-Py-Py-(R)^EDTA-FE(II)γ-Py-Py-Py-Py-) (4-E•Fe(II)) was constructed to confirm the binding orientation of cyclic polyamide (4) at its 5′-AGTATT-3′ match and 5′-AGTACT-3′ single base pair mismatch site. All polyamides were synthesized by solid phase methods (see Baird, et al., J. Am. Chem. Soc., vol. 118:6141 (1996), and U.S. Ser. No. 08/607,078 for a description of solid phase synthesis methods for non-cyclic polyamides). Polyamide purity and identity was confirmed by H NMR, MALDI-TOF MS, and analytical HPLC. Precise binding site sizes were determined by MPE•Fe(II) footprinting (see Van Dyke, et al., Proc. Natl. Acad. Sci. U.S.A., vol. 79:5470 (1982), and Van Dyke and Dervan, Science, vol. 225:1122 (1984)), and binding orientation and stoichiometry confirmed by affinity cleaving experiments. See Taylor, et al., Tetrahedron, vol.40:457 (1984), and Dervan, P. B., Science, vol. 232:464 (1986). Equilibrium association constants (Ka) of the polyamides for their respective match and mis-match binding sites were determined by quantitative DNase I footprint titration, as described by Brenowitz, et al., Methods Enzymol., vol. 130:132 (1986), Brenowitz, et al., Proc. Natl. Acad. Sci. U.S.A., vol 83:8462 (1986), and Senear, et al., Biochemistry, vol. 25:7344 (1986).
Quantitative DNase I footprint titrations (10 mm Tris•HCI, 10 mM KCl, 10 MM MgCl2 and 5 mM CaCl2 pH 7.0 and 22° C.) were performed to determine the equilibrium association constants (Ka) of Im-Py-Py-Py-β-Dp (1), Im-Py-Py-Py-(R)^H,NγIm-Py-Py-Py-OH (2), cyclo-(γ-Im-Py-Py-Py-(R)^H,Nγ-Im-Py-Py-Py) (3), and cyclo-(γ-Im-Py-Py-Py-(R)^H,Nγ-Py-Py-Py-Py-) (4) for the 6 bp match and mis-match sites. The results for (3) and (4) are depicted in FIG. 8.

[3] = tested on: 5′-AGTATT-3′ site on 229 bp restriction fragment of pJT8; assay: Quantitative DNase I footprint titration, 5′-AGTATT-3′ site; type: binding; details: for equilibrium association constant Ka at 5′-AGTATT-3′: 10 mM Tris•HCl, 10 mM KCl, 10 mM MgCl2, 5 mM CaCl2, pH 7.0, 22° C., match site for (4), single base pair mis-match for (3)
Procedure: as §1
as §2, with “130:132 (1986), Brenowitz, et al., Proc. Natl. Acad. Sci. U.S.A., vol 83:8462 (1986), and Senear, et al., Biochemistry, vol. 25:7344 (1986).” left out

[4] = tested on: 229 base pair restriction fragment of pJT8 (5′-AGTACT-3′ and 5′-AGTATT-3′ sites); assay: MPE•Fe(II) footprinting; type: binding; details: 25 mM HEPES pH 7.3, 200 mM NaCl, 22°; for MPE•Fe(II) footprinting: binding at match site: 10 nM polyamide
Procedure: FIG. 5 illustrates the 229 bp restriction fragment with the relative positions of the match and single base pair mis-match sequences indicated for two 8-ring cyclic polyamides, cyclo-(γ-Im-Py-Py-Py-(R)^H2^Nγ-Im-Py-Py-Py) (3) and cyclo-(γ-Im-Py-Py-Py-(R)^H2^Nγ-Py-Py-Py-Py) (4). MPE•Fe(II) protection patterns of 10 nM cyclo-(γ-Im-Py-Py-Py-(R)^H2^Nγ-Im-Py-Py-Py) (3) and 10 nM cyclo-(γ-Im-Py-Py-Py-(R)^H2^Nγ-Py-Py-Py-Py) (4) are shown by the bar graphs. Bar heights are proportional to the relative protection from cleavage at each base pair. Binding sites determined by MPE•Fe(II) footprinting and quantitated by DNase I footprint titrations are boxed. Autoradiograms of MPE•Fe(II) footprinting experiments using cyclo-(γ-Im-Py-Py-Py-(R)^H^2^Nγ-Im-Py-Py-Py) (3) (left) and cyclo-(γ-Im-Py-Py-Py-(R)^H^2^Nγ-Py-Py-Py-Py) (4) (right) on the 3′ ^32P-labeled 229 bp restriction fragment of pJT8. 5′-AGTATT-3′ and 5′-AGTACT-3′ sites are shown adjacent to the auto radiograms. Lane 1, intact control; lane 2, MPE•Fe(II) reaction; lane 3, A reaction standard; lanes 4-8: 100 pM; 1 nM; 10 nM; 100 nM; and […] polyamide, respectively. All lanes contain 15 kcpm of either 3′ or 5′-radiolabeled DNA, 25 mM HEPES buffer (pH 7.3), 200 mM NaCl, […] glycogen, 5 mM DTT, 0.5 mM MPE•Fe(II), and were run at 22° C.
as §2, with “25:7344 (1986). […]” for “25:7344 (1986).”

[5] = tested on: 229 base pair DNA restriction fragment from the plasmid pJT8 (5′-AGTATT-3′ and 5′-AGTACT-3′ sites); assay: Affinity cleavage experiments; type: binding; details: 100 nM; 20 mM HEPES pH 7.3, 200 mM NaCl, 1 μM Fe(II), 22° C.
Procedure: FIGS. 6A and 6B show the results of affinity cleaving experiments using cyclo-(γ-Im-Py-Py-Py-(R)^EDTA-Fe(II)γ-Py-Py-Py-Py) (4-E•Fe(II)) on the (a) 3′- and (b) 5′-^32P-labeled 229 bp restriction fragment of pJT8. The match and single mis-match sites 5′-AGTATT-3′ and 5′-AGTACT-3′ are shown on the right side of the autoradiograms. The lanes of each gel are described as follows lane 1, intact DNA (control); lane 2, A reaction; lanes 3-7, 100 pM, 1 nM, 10 nM, and 100 nM, and 1 μM polyamide, respectively. All lanes contain 15 kcpm of either 3′- or 5′-radiolabeled DNA, 20 mM HEPES buffer (pH 7.3), 200 mM NaCl, 50 μg/ml glycogen, 5 mM DTT, 1 μM Fe(II), pH 7.0, and were run at 22° C.
FIGS. 7A-7C illustrate the synthesis of cyclo-(γ-Im-Py-Py-Py(R)^EDTA•Fe(II)γPy-Py-Py-Py) (4-E•Fe(II)) from cyclo-(γ-Im-Py-Py-Py-(R)^H2^Nγ-Py-Py-Py-Py) (4) by: (i) EDTA dianhydride (DMSO/NMP, DIEA, 55° C., 15 min); (ii) 0.1 M NaOH (55° C., 10 min). […] Bar heights are proportional to the relative cleavage intensities at each base pair. Shaded and non-shaded circles denote Im and Py carboxamides, respectively. The boxed Fe denotes the EDTA•Fe(II) cleavage moiety. […]

| Substance | specificity for match sequence versus single base pair mismatch sites [1] | equilibrium association constant Ka at 5′-AGTACT-3′ [2] [M⁻¹] | increase in dsDNA binding affinity relative to unlinked, dimeric polyamide (1) ([2]; 5′-AGTACT-3′ match site) | equilibrium association constant Ka at 5′-AGTATT-3′ [3] [M⁻¹] | MPE•Fe(II) footprinting: binding at match site [4] | MPE•Fe(II) footprinting: binding at single base pair mismatch site [4] | also measured |
| --- | --- | --- | --- | --- | --- | --- | --- |
| Im-Py-Py-γ-Py-Py-Py-Dp | 20 fold | – | – | – | – | – | – |
| cyclo-(γ-Im-Py-Py-Py-(R)^H2Nγ-Im-Py-Py-Py) [polyamide 3] | – | 7.6e+10 | 3,600 fold | 1.3e+09 | bound to its designated 6 bp match sites | detected only at much higher polyamide concentrations | affinity enhancement relative to hairpin polyamide (2) ([2]; 5′-AGTACT-3′ match site): 8 fold; specificity for match 5′-AGTACT-3′ over single base pair mis-match 5′-AGTATT-3′ ([2]; ratio of Ka values): 55 fold |
| cyclo-(Im-Py-Py-γ-Py-Py-Py-γ) | 4-17 fold | – | – | – | – | – | concentration at which the five base pair target 5′-TGTTA-3′ is bound [1]: subnanomolar; higher affinity relative to hairpin analog Im-Py-Py-γ-Py-Py-Py-Dp [1]: 40 fold |
| Im-Py-Py-Py-(R)^H2Nγ-Im-Py-Py-Py-OH [polyamide 2, reference compound] | – | – | 428 fold | – | – | – | lower affinity than previously described hairpin Im-Py-Py-Py-γ-Im-Py-Py-Py-β-Dp [2]: 4 fold; lower sequence specificity than previously described hairpin Im-Py-Py-Py-γ-Im-Py-Py-Py-β-Dp [2]: 5 |
| cyclo-(γ-Im-Py-Py-Py-(R)^EDTA•Fe(II)γ-Py-Py-Py-Py-) [4-E•Fe(II)] | – | – | – | – | – | – | affinity cleavage pattern at 5′-AGTACT-3′ single base pair mis-match site [5]: minor cleavage loci located 3′ and 5′ adjacent to the single base pair mis-match 5′-AGTACT-3′ site; affinity cleavage pattern at 5′-AGTATT-3′ match site [5]: major cleavage locus proximal to the 3′ side of the 5′-AGTATT-3′ match sequence |
| cyclo-(γ-Im-Py-Py-Py-(R)^H2Nγ-Py-Py-Py-Py) [polyamide 4] | – | 4.2e+08 | – | 3.1e+09 | bound to its designated 6 bp match sites | protected its targeted match site 5′-AGTATT-3′ and the single base pair mismatch site 5′-AGTACT-3′ | preference for match 5′-AGTATT-3′ versus single base pair mis-match 5′-AGTACT-3′ ([3]; ratio of Ka values): 7 fold |
